The experiment deals with PDGFRβ (Rattus norvegicus (Rat), UniProt Q05030). Nature of the experiment: PDGFRβ Cellular Assay (PDGFRb P-Y751 HTRF in A10 cells stimulated with PDGF-BB). The experiment is classed as cell-based. The following applies: read-out: PDGFR Cellular IC50. An outline of the steps:
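Phospho-Y751 PDGFRβ was measured by HTRF in lysates of A10 rat cells. Cells received compound for 3 hours before PDGF-BB stimulation (100 ng/mL working stock).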
On the technique in general: In TR-FRET formats the signal depends on donor and acceptor labels being close together.

Our source for the IC50 values is patent US20240109917A1 (ACTELION PHARMACEUTICALS LTD, priority 2020, published 2024).

PDGFRβ, sequence (Q05030 32-1097): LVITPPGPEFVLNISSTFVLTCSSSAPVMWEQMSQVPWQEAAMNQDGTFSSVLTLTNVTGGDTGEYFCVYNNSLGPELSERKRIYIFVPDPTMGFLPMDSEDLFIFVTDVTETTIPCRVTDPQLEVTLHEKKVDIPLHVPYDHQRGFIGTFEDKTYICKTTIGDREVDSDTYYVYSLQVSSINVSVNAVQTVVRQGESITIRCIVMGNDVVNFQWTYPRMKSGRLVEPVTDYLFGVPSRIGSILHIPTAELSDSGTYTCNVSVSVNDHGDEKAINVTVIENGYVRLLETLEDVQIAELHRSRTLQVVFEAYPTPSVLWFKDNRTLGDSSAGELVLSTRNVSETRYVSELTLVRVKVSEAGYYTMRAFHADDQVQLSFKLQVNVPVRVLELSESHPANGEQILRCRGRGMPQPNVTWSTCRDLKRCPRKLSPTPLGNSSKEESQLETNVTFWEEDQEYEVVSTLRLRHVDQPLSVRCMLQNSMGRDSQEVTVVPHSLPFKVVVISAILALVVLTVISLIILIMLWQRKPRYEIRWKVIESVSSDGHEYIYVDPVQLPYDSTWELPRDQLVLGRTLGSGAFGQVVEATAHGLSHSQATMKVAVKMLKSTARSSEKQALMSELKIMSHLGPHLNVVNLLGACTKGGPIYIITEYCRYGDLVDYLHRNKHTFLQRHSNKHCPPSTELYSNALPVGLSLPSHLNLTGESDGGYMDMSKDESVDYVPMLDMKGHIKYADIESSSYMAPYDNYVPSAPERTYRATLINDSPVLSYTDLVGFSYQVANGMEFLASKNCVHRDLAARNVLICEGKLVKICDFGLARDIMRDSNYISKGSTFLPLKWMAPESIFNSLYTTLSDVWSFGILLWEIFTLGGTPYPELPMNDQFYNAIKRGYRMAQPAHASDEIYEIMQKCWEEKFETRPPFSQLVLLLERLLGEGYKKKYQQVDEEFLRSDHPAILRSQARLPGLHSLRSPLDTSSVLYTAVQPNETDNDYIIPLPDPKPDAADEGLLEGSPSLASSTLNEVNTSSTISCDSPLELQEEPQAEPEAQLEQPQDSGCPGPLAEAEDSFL

By IC50 is commonly meant the concentration that inhibits the measured activity by half. Take `Cc1ncc(NC(=O)CN2CC3(CCOCC3)C2)cc1NC(=O)c1cnn2cc(-c3cnn4c3OCCC4)sc12` [Example 406, N-(5-(2-(7-oxa-2-azaspiro[3.5]nonan-2-yl)acetamido)-2-methylpyridin-3-yl)-2-(6,7-dihydro-5H-pyrazolo[5,1-b][1,3]oxazin-3-yl)pyrazolo[5,1-b]thiazole-7-carboxamide]: the IC50 came out at 18.9 nM.
Take `Cc1ncc(NC(=O)CN2CC(C)C2)cc1NC(=O)c1cnn2cc(-c3cnn4c3OCCC4)sc12` [Example 407, 2-(6,7-dihydro-5H-pyrazolo[5,1-b][1,3]oxazin-3-yl)-N-(2-methyl-5-(2-(3-methylazetidin-1-yl)acetamido)pyridin-3-yl)pyrazolo[5,1-b]thiazole-7-carboxamide]: the IC50 is 11.9 nM.
